According to the NIST ThermoML archive (doi:10.1021/je049875+):
Numbers after ± are expanded uncertainties.

Experiment: activity coefficient (dimensionless); of the first substance listed, at infinite dilution; xn = mol fraction of the nth substance listed
Settings: 101.33 kPa, Liquid, Chromatography, x1 = 0

## CCC(C)(C)OC [2-methoxy-2-methylbutane] + O
303.25 K
  activity coefficient: 643 ± 39
313.25 K
  activity coefficient: 796 ± 48
323.25 K
  activity coefficient: 942 ± 57
333.25 K
  activity coefficient: 1080 ± 65

## COC(C)(C)C [2-methoxy-2-methylpropane] + O
303.25 K
  activity coefficient: 153 ± 9
313.25 K
  activity coefficient: 195 ± 12
323.25 K
  activity coefficient: 235 ± 14
333.25 K
  activity coefficient: 278 ± 17

## CC(C)=O [acetone] + O
303.25 K
  activity coefficient: 8.02 ± 0.48
313.25 K
  activity coefficient: 9.2 ± 0.6
323.25 K
  activity coefficient: 9.81 ± 0.58
333.25 K
  activity coefficient: 10.3 ± 0.6

## c1ccccc1 [benzene] + O
308.95 K
  activity coefficient: 2470 ± 150
313.25 K
  activity coefficient: 2370 ± 140
318.25 K
  activity coefficient: 2250 ± 140
323.15 K
  activity coefficient: 2140 ± 130

## CCC(C)=O [butanone] + O
303.25 K
  activity coefficient: 29.5 ± 1.8
313.25 K
  activity coefficient: 33.8 ± 2
323.25 K
  activity coefficient: 35.9 ± 2.1
333.25 K
  activity coefficient: 38.9 ± 2.3

## CCOCC [diethyl ether] + O
303.25 K
  activity coefficient: 90.1 ± 5.4
313.25 K
  activity coefficient: 113 ± 7
323.25 K
  activity coefficient: 135 ± 8
333.25 K
  activity coefficient: 158 ± 10

## CC(C)OC(C)C [diisopropyl ether] + O
303.25 K
  activity coefficient: 737 ± 44
313.25 K
  activity coefficient: 965 ± 58
323.25 K
  activity coefficient: 1140 ± 69
333.25 K
  activity coefficient: 1310 ± 79

## CCCOCCC [dipropyl ether] + O
303.25 K
  activity coefficient: 2520 ± 150
313.25 K
  activity coefficient: 2880 ± 180
323.25 K
  activity coefficient: 3230 ± 200
333.25 K
  activity coefficient: 3230 ± 200

## CCO [ethanol] + O
303.25 K
  activity coefficient: 5.03 ± 0.3
313.25 K
  activity coefficient: 5.33 ± 0.32
323.25 K
  activity coefficient: 5.54 ± 0.33
333.25 K
  activity coefficient: 5.76 ± 0.34
343.25 K
  activity coefficient: 5.96 ± 0.35

## CCOC(C)=O [ethyl acetate] + O
303.25 K
  activity coefficient: 76.5 ± 4.6
313.25 K
  activity coefficient: 85 ± 5
323.25 K
  activity coefficient: 90.1 ± 5.4
333.25 K
  activity coefficient: 94.7 ± 5.7
343.25 K
  activity coefficient: 96.2 ± 5.8

## CCOC=O [ethyl methanoate] + O
303.25 K
  activity coefficient: 53.8 ± 3.2
313.25 K
  activity coefficient: 55.7 ± 3.3
323.25 K
  activity coefficient: 57.1 ± 3.4
333.25 K
  activity coefficient: 57.7 ± 3.5

## COC(C)=O [methyl ethanoate] + O
303.25 K
  activity coefficient: 26.2 ± 1.6
313.25 K
  activity coefficient: 28.4 ± 1.7
323.25 K
  activity coefficient: 29.8 ± 1.8
333.25 K
  activity coefficient: 31.2 ± 1.9
343.25 K
  activity coefficient: 31.6 ± 1.9

## COC=O [methyl methanoate] + O
303.25 K
  activity coefficient: 18.7 ± 1.1
313.25 K
  activity coefficient: 19.1 ± 1.1
323.25 K
  activity coefficient: 19.5 ± 1.2
333.25 K
  activity coefficient: 19.8 ± 1.2

## CCCC(C)=O [pentan-2-one] + O
303.25 K
  activity coefficient: 105 ± 6
313.25 K
  activity coefficient: 120 ± 7
323.25 K
  activity coefficient: 128 ± 8
333.25 K
  activity coefficient: 135 ± 8

## CCCOC(C)=O [propyl ethanoate] + O
303.25 K
  activity coefficient: 297 ± 18
313.25 K
  activity coefficient: 325 ± 20
323.25 K
  activity coefficient: 341 ± 21
333.25 K
  activity coefficient: 351 ± 21
343.25 K
  activity coefficient: 348 ± 21

## Cc1ccccc1 [toluene] + O
308.95 K
  activity coefficient: 8570 ± 520
313.25 K
  activity coefficient: 8090 ± 490
318.25 K
  activity coefficient: 7720 ± 470
323.15 K
  activity coefficient: 7110 ± 430
